Target: LdGSK-3 (Leishmania donovani, UniProt A6N857)
Assay: Inhibition of LdGSK-3 with Kinase Glo
Format: biochemical
Conditions: Table S2; 10 µM
Procedure: Assessment of inhibition of LdGSK-3 with Kinase Glo^TM
The reaction was allowed to proceed for 30 min at 30 °C, then it was incubated at room temperature for another 10 min after addition of Kinase Glo reagents (Promega, Ref. V6712). ATP consumption by LdGSK-3 was measured indirectly through end-point luminescence measurement of each well in a Varioskan Flash microplate reader (Thermo).

LdGSK-3, sequence (A6N857 entry or part of it): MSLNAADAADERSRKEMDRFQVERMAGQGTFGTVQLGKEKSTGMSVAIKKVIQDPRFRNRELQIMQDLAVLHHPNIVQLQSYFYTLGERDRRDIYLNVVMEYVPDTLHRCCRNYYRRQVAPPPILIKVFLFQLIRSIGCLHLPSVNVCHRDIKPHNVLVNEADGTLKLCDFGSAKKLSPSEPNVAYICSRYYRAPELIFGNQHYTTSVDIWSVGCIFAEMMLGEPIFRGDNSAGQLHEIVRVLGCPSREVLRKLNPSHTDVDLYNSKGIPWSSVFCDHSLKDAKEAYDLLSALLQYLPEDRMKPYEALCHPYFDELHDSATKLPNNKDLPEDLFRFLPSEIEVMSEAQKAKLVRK

| % inhibition @ 10µM (initial screening on LdGSK3) [%] | Compound |
| --- | --- |
| 9.10±1.75 | Cc1nn(-c2ccccc2)nc1CNC(=O)CN(Cc1ccccn1)Cc1ccccn1.O=C(O)C(F)(F)F [Compound 144] |
| 9.25±0.40 | CCOc1ccc2nc(NC(=O)c3ccc([N+](=O)[O-])s3)sc2c1 [Compound 145] |
| 11.85±0.55 | CCN(CC)c1nc(N(C)C)nc2c1CN(Cc1ccccc1)CC2 [Compound 146] |
| 13.40±2.35 | Cc1cccc(Nc2nc(-c3ccccn3)cs2)n1 [Compound 147] |
| 9.60±3.10 | COCc1cnc2c(c1SCc1c(F)cccc1Cl)c(=O)n(C)c(=O)n2C [Compound 148] |
| 8.90±2.10 | Cc1nc(C(=O)Nc2ccc3c(c2)OCO3)nn1-c1ccc(Cl)cc1 [Compound 149] |
| 13.55±4.65 | COc1ccc(CNc2nsc3ccccc23)cc1OC [Compound 150] |
| -2.95±1.70 | O=C(CN1CCN(S(=O)(=O)c2cccc([N+](=O)[O-])c2)CC1)Nc1ccc(Oc2ccccc2)cc1 [Compound 152] |
| -5.50±2.15 | COc1cccc(C(=O)[C@H]2C[C@@H]2CN(Cc2ccccn2)Cc2ccccn2)c1 [Compound 153] |
| 2.50±1.45 | O=C(CN(Cc1ccccn1)Cc1ccccn1)NCc1ccc(-c2csnn2)cc1.O=C(O)C(F)(F)F [Compound 154] |
| 7.50±1.00 | O=C(Nc1nc2ccccc2[nH]1)c1c(O)c2cccc3c2n(c1=O)CC3 [Compound 155] |
| 11.90±1.75 | COc1ccc(C2CC(c3ccc(NS(C)(=O)=O)cc3)=NN2C(=O)c2cccs2)cc1OC (centres unmarked) [Compound 156] |
| 4.50±4.45 | COc1ccc(Nc2nc(-c3ccccn3)cs2)c(OC)c1 [Compound 157] |
| 7.85±3.95 | Cc1cc(C)n(-c2nc(NC(C)C)nc(NC(C)(C)C)n2)n1 [Compound 158] |
| 8.80±2.70 | CCCc1cc(C(=O)Nc2ncc(-c3cccc(Br)c3)n2C)n[nH]1 [Compound 159] |
| 12.60±3.50 | COc1ccc(-c2cnc(C)o2)cc1S(=O)(=O)Nc1ccc(C)cc1C [Compound 160] |
| 3.00±3.05 | CCCCn1nnnc1CSc1nc(C)cc(C)c1C#N [Compound 161] |
| 9.20±3.30 | COc1ccccc1C(=O)Nc1nnc(-c2ccc3c(c2)OCO3)s1 [Compound 162] |
| 3.10±0.70 | O=C(c1ccc(Cl)cc1)c1ccc(OC(=O)N2CCOCC2)cc1 [Compound 163] |
| 1.15±1.40 | COCCn1c(-c2ccc3c(c2)OCO3)cnc1NCc1ccccc1OC.O=C(O)C(=O)O [Compound 164] |
| 4.70±0.85 | CCS(=O)(=O)c1cccc(C(=O)Nc2nc(-c3ccccn3)cs2)c1 [Compound 165] |
| 18.60±2.15 | CCOc1ccc(Nc2ccc(S(=O)(=O)N3CCN(C)CC3)cc2[N+](=O)[O-])cc1OCC [Compound 166] |
| 38.45±1.35 | CN(C)S(=O)(=O)c1cccc(CSc2nnc(-c3ccc4c(c3)OCO4)o2)c1 [Compound 167] |
| 14.15±2.15 | CCCCN(C(=O)c1ccc(NC(=O)C(C)C)cc1)c1ccccc1 [Compound 168] |
| 32.90±2.70 | Nc1nc(-c2ccccc2)cc(-c2nc3ncccc3[nH]2)n1 [Compound 169] |
| 13.20±1.65 | COc1ccc(-c2cc(C)no2)cc1S(=O)(=O)Nc1ccc(C)c(C)c1 [Compound 170] |
| 4.25±2.30 | Br.Fc1ccc(Nc2nc(-c3ccccn3)cs2)cc1 [Compound 171] |
| 5.20±2.65 | COc1ccccc1-n1c(SCC(=O)Nc2ccc3c(c2)OCO3)nc2c(c1=O)SCC2 [Compound 172] |
| 8.60±2.90 | COc1ccc2ncc(F)c(CCN3CC[C@@H](NC(=O)c4cc5c(s4)CCC5)[C@@H](O)C3)c2n1.Cl [Compound 173] |
| 6.00±1.50 | COCCn1c(-c2ccccc2)cnc1NCc1ccccc1OC.O=C(O)C(=O)O [Compound 174] |

Second part, the molecule before the results:

| Compound | % inhibition @ 10µM (initial screening on LdGSK3) [%] |
| --- | --- |
| OCC1CCCCN1c1cc(-c2ccccn2)nc(Nc2ccccc2)n1 (centres unmarked) [Compound 99] | 0.60±0.60 |
| N#Cc1cccc(Nc2nccc(N3CCC(NS(=O)(=O)c4cccc(C#N)c4)CC3)n2)c1.O=C(O)C(F)(F)F [Compound 100] | 37.05±1.50 |
| Br.Nc1nccc(-c2csc(Nc3ccc(Cl)cc3)n2)n1 [Compound 101] | 16.40±2.40 |
| Oc1c(-c2n[nH]c(Cc3ccc(F)cc3)n2)ncc2cccnc12 [Compound 102] | 4.05±3.10 |
| CC(C)(C)Nc1nc(Nc2ccc3c(c2)CS(=O)(=O)C3)nc2[nH]ccc12 [Compound 103] | 25.85±1.25 |
| Cc1nn(-c2nc(N)nc(-c3ccccn3)n2)c(C)c1Cc1ccccc1 [Compound 104] | -0.75±1.55 |
| NC(=O)c1cc(NC(=O)c2ccccc2COc2ccccc2)ccc1Cl [Compound 105] | -0.45±1.10 |
| CC(C)Nc1nc(Cl)nc2ccccc12 [Compound 106] | -4.60±0.90 |
| COc1ccc(C(=O)[C@H]2C[C@@H]2CN(Cc2ccccn2)Cc2ccccn2)cc1 [Compound 107] | -4.05±3.20 |
| CCS(=O)(=O)Nc1ccc(C2=NN(C(=O)c3cccs3)C(c3ccccc3OC)C2)cc1 (centres unmarked) [Compound 108] | 5.15±1.90 |
| COc1ccc(OC)c2c(=O)c(Cc3ccccc3)c(C)[nH]c12 [Compound 110] | -0.10±5.35 |
| Cc1nc2c(-c3nc(-c4ccc(N)cc4)n[nH]3)cccn2c1C [Compound 111] | 7.35±4.65 |
| CCOc1cc(NCCCN2CCN(C)CC2)c2ncccc2c1.Cl.Cl.Cl [Compound 112] | 7.50±0.65 |
| Cc1nc2c(-c3nc(-c4ccccc4N)n[nH]3)cccn2c1C [Compound 113] | 1.40±0.50 |
| Cc1cn[nH]c1C1CCCN(Cc2nc3ccccc3n2C)C1 (centres unmarked) [Compound 114] | 2.85±0.45 |
| Cc1ccc2c(c1)SC(C(=O)Nc1n[nH]c(-c3ccccn3)n1)C2 (centres unmarked) [Compound 115] | 3.20±0.80 |
| O=C(Nc1nc(-c2ccccn2)cs1)c1ccc(S(=O)(=O)N2CCCCC2)cc1 [Compound 116] | 7.05±1.35 |
| NC(=O)c1ccsc1NC(=O)c1ccc([N+](=O)[O-])s1 [Compound 117] | 6.20±1.15 |
| CCc1ccc2nc(NC(=O)c3cc(N4CCOCC4)ccn3)sc2c1 [Compound 118] | 22.80±3.55 |
| Cc1nn(-c2nc3ccccc3[nH]2)c2c1C(c1ccc(O)cc1)CC(=O)N2 (centres unmarked) [Compound 120] | 18.15±1.70 |
| Cl.NCc1ccc2c(Cl)cc(Cl)c(O)c2n1 [Compound 121] | 14.80±1.70 |

| Compound | % inhibition @ 10µM (initial screening on LdGSK3) [%] |
| --- | --- |
| COc1ccc(Cl)cc1CC(=O)Nc1n[nH]c(-c2ccccn2)n1 [Compound 122] | 3.95±2.45 |
| O=C(Cc1ccc2c(c1)CCC2)Nc1n[nH]c(-c2ccccn2)n1 [Compound 123] | 12.15±3.90 |
| COc1ccc(C2=NCC(CSc3nnc(-c4ccc5c(c4)OCO5)o3)S2)cc1 (centres unmarked) [Compound 125] | 10.60±1.00 |
| Cl.c1ccc(CNc2cccc3ccncc23)cc1 [Compound 126] | 17.10±1.10 |
| CCC(=O)N1N=C(c2ccc3c(c2)CCCC3)Sc2c1ncn2C(=O)CC [Compound 127] | 9.65±3.70 |
| Cn1ccnc1-c1nc(NCc2ccccc2Cl)cc(C2CC2)n1.O=C(O)C(F)(F)F [Compound 129] | 8.90±6.75 |
| COc1cc2c(cc1OC)[C@H]1[C@@H](C)c3ccc(OC)c(OC)c3CN1CC2 [Compound 130] | 12.85±2.80 |
| COc1ccc(NS(=O)(=O)c2cc(NC(=O)c3ccc([N+](=O)[O-])s3)ccc2OC)cc1 [Compound 131] | 19.75±3.70 |
| O=C(Nc1nc(-c2ccc(F)cc2)cs1)c1ccc([N+](=O)[O-])s1 [Compound 132] | 8.15±0.95 |
| O=C(Nc1cccc(S(=O)(=O)Nc2ccc(Br)cc2)c1)c1ccc([N+](=O)[O-])s1 [Compound 133] | 15.75±4.25 |
| CC(CCc1ccccc1)NC(=O)CN(Cc1ccccn1)Cc1ccccn1.O=C(O)C(F)(F)F (centres unmarked) [Compound 134] | 5.25±1.70 |
| COc1ccc(NS(=O)(=O)c2ccc(S(=O)(=O)N(C)C3CCCCC3)cc2)c2ncccc12 [Compound 135] | 6.85±1.55 |
| CN(C)c1ccc(N)cc1CN(CC1CCCO1)S(C)(=O)=O (centres unmarked) [Compound 136] | 13.95±3.25 |
| Cc1ccc(NC(C)C(=O)Nc2ccc(C#N)cc2)cc1S(=O)(=O)N1CCCCC1 (centres unmarked) [Compound 137] | 9.35±1.30 |
| CCn1c(NC(=O)Cc2ccc(F)cc2)nc2ccccc21 [Compound 138] | 13.00±3.55 |
| COc1cc(OC)cc(C(NS(=O)(=O)c2ccc(Cl)c(C(F)(F)F)c2)c2nccn2C)c1 (centres unmarked) [Compound 139] | 15.95±1.70 |
| O=C(c1cccc(Nc2ncc(-c3ccc4c(c3)OCO4)cn2)c1)N1CCSC1 [Compound 140] | 18.20±7.00 |
| CC(=O)Nc1ccc(-c2csc(NC(=O)c3ccc([N+](=O)[O-])s3)n2)cc1 [Compound 141] | 8.55±0.55 |
| COc1ccc(-c2csc(NC(=O)c3ccc([N+](=O)[O-])s3)n2)cc1OC [Compound 142] | 7.95±2.05 |
| O=C(CN1CCC2(O)CCCCC2C1c1ccc2c(c1)OCO2)Nc1ccc(Cl)cc1Cl (centres unmarked) [Compound 143] | 2.25±0.35 |

— article PMC6882465, “Towards discovery of new leishmanicidal scaffolds able to inhibit Leishmania GSK-3” (Journal of Enzyme Inhibition and Medicinal Chemistry, 2019)
